Data published in the NIST ThermoML archive (doi:10.1021/je101031j).
Numbers after ± are expanded uncertainties. Values belong to the compound of their own block, whether it stands above or below them.

Legend:
[1] = 298.15 K; 101.33 kPa; Liquid; Vibrating tube method
[2] = refractive index (Na D-line) (dimensionless); settings: 298.15 K; 101.33 kPa; Liquid; Standard Abbe refractometry
[3] = excess molar enthalpy (molar enthalpy of mixing); xn = mol fraction of the nth substance listed; settings: 298.15 K, 101.3 kPa, Liquid, Calvet calorimetry

SMILES: CCC(C)(C)O [2-methylbutan-2-ol]
mass density [1]: 804.8 ± 0.31 kg/m3
refractive index [2]: 1.4019 ± 0.0005

SMILES: CCC(C)(C)O [2-methylbutan-2-ol] + CCCCCO
excess molar enthalpy ([3]; x1 = 0.0899): -0.0499 ± 0.000574 kcal/mol
excess molar enthalpy ([3]; x1 = 0.18): -0.09866 ± 0.000956 kcal/mol
excess molar enthalpy ([3]; x1 = 0.27): -0.1359 ± 0.00124 kcal/mol
excess molar enthalpy ([3]; x1 = 0.3664): -0.1551 ± 0.00139 kcal/mol
excess molar enthalpy ([3]; x1 = 0.4566): -0.1636 ± 0.00146 kcal/mol
excess molar enthalpy ([3]; x1 = 0.5468): -0.1618 ± 0.00143 kcal/mol
excess molar enthalpy ([3]; x1 = 0.6372): -0.1515 ± 0.00136 kcal/mol
excess molar enthalpy ([3]; x1 = 0.7278): -0.1268 ± 0.00117 kcal/mol
excess molar enthalpy ([3]; x1 = 0.8185): -0.09235 ± 0.000908 kcal/mol
excess molar enthalpy ([3]; x1 = 0.9091): -0.0493 ± 0.000574 kcal/mol

SMILES: CCC(C)(C)O [2-methylbutan-2-ol] + CCCCO
excess molar enthalpy ([3]; x1 = 0.09): -0.064 ± 0.000669 kcal/mol
excess molar enthalpy ([3]; x1 = 0.1801): -0.1142 ± 0.00108 kcal/mol
excess molar enthalpy ([3]; x1 = 0.2702): -0.1553 ± 0.00139 kcal/mol
excess molar enthalpy ([3]; x1 = 0.3707): -0.1793 ± 0.00158 kcal/mol
excess molar enthalpy ([3]; x1 = 0.4609): -0.1912 ± 0.00167 kcal/mol
excess molar enthalpy ([3]; x1 = 0.551): -0.1882 ± 0.00165 kcal/mol
excess molar enthalpy ([3]; x1 = 0.6412): -0.1746 ± 0.00153 kcal/mol
excess molar enthalpy ([3]; x1 = 0.7313): -0.145 ± 0.00131 kcal/mol
excess molar enthalpy ([3]; x1 = 0.8198): -0.102 ± 0.00098 kcal/mol
excess molar enthalpy ([3]; x1 = 0.9099): -0.0509 ± 0.000574 kcal/mol

SMILES: CCC(C)(C)O [2-methylbutan-2-ol] + CCCO
excess molar enthalpy ([3]; x1 = 0.09): -0.0608 ± 0.000645 kcal/mol
excess molar enthalpy ([3]; x1 = 0.1801): -0.1096 ± 0.00103 kcal/mol
excess molar enthalpy ([3]; x1 = 0.2802): -0.1568 ± 0.00141 kcal/mol
excess molar enthalpy ([3]; x1 = 0.3701): -0.1879 ± 0.00165 kcal/mol
excess molar enthalpy ([3]; x1 = 0.4599): -0.2053 ± 0.00177 kcal/mol
excess molar enthalpy ([3]; x1 = 0.5497): -0.2041 ± 0.00177 kcal/mol
excess molar enthalpy ([3]; x1 = 0.6395): -0.1921 ± 0.00167 kcal/mol
excess molar enthalpy ([3]; x1 = 0.7292): -0.1605 ± 0.00143 kcal/mol
excess molar enthalpy ([3]; x1 = 0.8189): -0.1131 ± 0.00105 kcal/mol
excess molar enthalpy ([3]; x1 = 0.9088): -0.0556 ± 0.000621 kcal/mol

SMILES: CCC(C)(C)O [2-methylbutan-2-ol] + CCO
excess molar enthalpy ([3]; x1 = 0.0898): -0.0594 ± 0.000645 kcal/mol
excess molar enthalpy ([3]; x1 = 0.1796): -0.1128 ± 0.00105 kcal/mol
excess molar enthalpy ([3]; x1 = 0.2807): -0.1686 ± 0.00148 kcal/mol
excess molar enthalpy ([3]; x1 = 0.3707): -0.2039 ± 0.00177 kcal/mol
excess molar enthalpy ([3]; x1 = 0.4607): -0.2271 ± 0.00194 kcal/mol
excess molar enthalpy ([3]; x1 = 0.5507): -0.2326 ± 0.00198 kcal/mol
excess molar enthalpy ([3]; x1 = 0.6406): -0.2178 ± 0.00186 kcal/mol
excess molar enthalpy ([3]; x1 = 0.7306): -0.1842 ± 0.0016 kcal/mol
excess molar enthalpy ([3]; x1 = 0.8205): -0.1302 ± 0.0012 kcal/mol
excess molar enthalpy ([3]; x1 = 0.9103): -0.0648 ± 0.000693 kcal/mol

SMILES: CCC(C)(C)O [2-methylbutan-2-ol] + CO
excess molar enthalpy ([3]; x1 = 0.0908): -0.0613 ± 0.000669 kcal/mol
excess molar enthalpy ([3]; x1 = 0.1814): -0.1248 ± 0.00115 kcal/mol
excess molar enthalpy ([3]; x1 = 0.2731): -0.1921 ± 0.00167 kcal/mol
excess molar enthalpy ([3]; x1 = 0.3644): -0.2497 ± 0.00213 kcal/mol
excess molar enthalpy ([3]; x1 = 0.4608): -0.2868 ± 0.00239 kcal/mol
excess molar enthalpy ([3]; x1 = 0.5513): -0.3031 ± 0.00263 kcal/mol
excess molar enthalpy ([3]; x1 = 0.6416): -0.2905 ± 0.00239 kcal/mol
excess molar enthalpy ([3]; x1 = 0.7319): -0.2556 ± 0.00217 kcal/mol
excess molar enthalpy ([3]; x1 = 0.8195): -0.1911 ± 0.00167 kcal/mol
excess molar enthalpy ([3]; x1 = 0.9101): -0.1008 ± 0.000956 kcal/mol

mass density [1]: 805.61 ± 0.31 kg/m3
refractive index [2]: 1.3973 ± 0.0005
SMILES: CCCCO [butan-1-ol]

mass density [1]: 785.22 ± 0.31 kg/m3
refractive index [2]: 1.3591 ± 0.0005
SMILES: CCO [ethanol]

mass density [1]: 786.42 ± 0.31 kg/m3
refractive index [2]: 1.3264 ± 0.0005
SMILES: CO [methanol]

mass density [1]: 810.82 ± 0.31 kg/m3
refractive index [2]: 1.4086 ± 0.0005
SMILES: CCCCCO [pentan-1-ol]

mass density [1]: 799.46 ± 0.31 kg/m3
refractive index [2]: 1.383 ± 0.0005
SMILES: CCCO [propan-1-ol]
